Data: US20150175585A1, “FUSED QUINONIC COMPOUNDS” (CENTRO ATLANTICO DEL MEDICAMENTO S.A (CEAMED, S.A.), priority 2012, published 2015)

Columns and labels:
JAK2 = JAK2 phosphorylation western blot assay; assay type: cell-based, human; conditions: 10 microM, HEL or K562 cells (table does not say which)
Procedure: (§1) The Human Erythroleukemia cell line HEL and the human Chronic Myeloid Leukemia cell line K562 were cultured in RPM I 1640 medium containing 10% fetal bovine serum (FBS) and 50 U/ml penicillin/50 U/ml streptomycin at 37° C. in a 5% CO2 humidified atmosphere to a density of 300.000 viable cells/mL in presence of WP1066 (positive control of phosphorylation inhibition) (Verstovsek et al., 2008) or CM-363 at concentrations of 1, 5 and 10 μM. Cell culture reagents were all obtained from BioWhittaker® (Lonza, Verniers, Belgium). Cell growth and viability was determined by propidium iodide (fluorescent dye) exclusion method using the Accuchip 4× Counting Kit and the ADAM automatic cell counter (Digital-Bio, NanoEntek, Ic., Washington St, Mass., USA).As a control of unspecific phosphorylation, some cells in each experiment were exposed to vehicle (negative control of phosphorylation inhibition) (0.1% DMSO).
(§2) For total protein extraction, cells were scraped with RIPA 1× lysis buffer (25 mM Tris-HCl pH 7.6, 150 mM NaCl, 1% NP-40, 1% sodium deoxycholate, 0.1% SDS, no. 89900, Thermo Scientific, Rockford, Ill., USA) supplemented with 1× protease and 1× phosphatase inhibitor cocktails (100× Halt™ Protease Inhibitor Cocktail, no. 87786 and 100× Halt Phosphatase Inhibitor Cocktail, no. 78420, both from Thermo Scientific, Rockford, Ill., USA). An aliquot of each extract was preserved for protein quantification by bicinchoninic acid assay (Pierce® BCA Protein Assay Kit, no. 23225, Thermo Scientific, Rockford, Ill., USA).
(§3) Proteins were solubilized in sample buffer containing 0.0625 M Tris-HCl, pH 6.8, 2.3% (wt/vol) SDS, 10% (vol/vol) glycerol, 5% (vol/vol) f3-mercaptoethanol, and 0.001% (wt/vol) bromophenol blue and boiled at 95° C. for 5 min. Equal amounts (50 μg) of each sample were electrophoresed on 8-10% sodium dodecyl sulfate-polyacrylamide gel electrophoresis (SDS-PAGE) and transferred to nitrocellulose membranes (iBlot® Gel Transfer Stacks, Nitrocellulose, no. IB4010-02, Invitrogen, Barcelona, Spain) as described previously (Fernandez, L, et al., Endocrinology, 13, 1815-1824, 1998; B. Guerra et al., J. Neurochem, 91, 99-109, 2004; B. Guerra et al., J. Appl. Physiol., 102, 1786-1792, 2007; B. Guerra et al., J. Appl. Physiol., 111, 715-725, 2011). The nitrocellulose membranes were then removed from the iBlot® Dry GelTransfer Device (no. IB1001EU, Invitrogen, Barcelona, Spain) and placed in a Ponceau S staining solution (0.5% Ponceau S and 1% glacial acetic acid in water) to verify equal loading of protein in the control and treated samples. After the membranes were stained for 5 min, they were rinsed for 2 min and examined. Equal loading of protein was verified, and the membranes were rinsed for an additional 10 min and immunoscreened. Membranes were blocked with 5% blotting grade blocker nonfat dry milk in Tris Buffered Saline with 0.05% Tween 20 (TBST; blotto-blocking buffer) for at least […]) at room temperature. They were washed thrice in TBS with 0.1% Tween 20 (TBST-0.1). Next, the membranes were incubated over night at 4° C. with the appropriate anti-phospho-antibodies (described below) all diluted (1:1000) in 1% bovine serum albumin (BSA)-1% blotto in TBST (BSA-blotto blocking buffer). […] Membranes were stripped of bound antibodies by incubation in stripping buffer (Restore™ Western Blot Stripping Buffer, no. 21059, Thermo Scientific, Rockford, Ill., USA) at room temperature for 30 min with agitation. Membranes were washed for 3×10 min in TBST-0.1, blocked with blotto-blocking buffer for at least 1 h and re-probed with the corresponding anti-total kinase antibodies (described below) all diluted (1:1000) in blotto-blocking buffer. […]

STAT5 = STAT5 phosphorylation western blot assay; assay type: cell-based, human; conditions: 10 microM, HEL or K562 cells (table does not say which)
Procedure: as §1, §2, §3

K562 tumors = experiment: In vivo efficacy, K562 tumor xenografts in NOD-SCID mice; conditions: 10 mg/kg i.p. daily except Saturdays and Sundays, 25 day study; P=0.004 day 4, P=0.007 day 25
Source text: Mice were sacrificed when their tumor diameters reached 2 cm, or when they became moribund.

## N#Cc1ccc(C2C3=C(CCCC3=O)OC3=C2C(=O)c2ccccc2C3=O)cc1 (stereo not drawn) [Compound 4, 4-(1,6,11-trioxo-2,3,4,6,11,12-hexahydro-1H-benzo[b]xanthen-12-yl)benzonitrile]
JAK2
  Activity (inhibition of JAK2 phosphorylation): ++ (++represents an inhibition at 10 microM > 50%)
STAT5
  Activity (inhibition of STAT5 phosphorylation): +++ (+++represents an inhibition at 10 microM > 75%)
K562 tumors
  tumor growth (tumor volume) compared to control group: pronounced, and statistically significant reduction
